# Measurements taken from article PMC11908749 (Chemistry & Biodiversity, 2025).
# Legend:
# Type in all cases: cell-based
# [1] = tested on: U‐251 (human glioblastoma cell line); experiment: SRB cytotoxicity, U-251 cells; conditions: read-out: IC50 U‐251, non-linear regression
# [2] = tested on: SK‐LU‐1 (human lung adenocarcinoma); experiment: SRB cytotoxicity, SK-LU-1 cells; conditions: read-out: IC50 SK‐LU‐1, non-linear regression
# [3] = tested on: MCF‐7 (human mammary adenocarcinoma); experiment: SRB cytotoxicity, MCF-7 cells; conditions: read-out: IC50 MCF‐7, non-linear regression
substance,measurement,setting,value
curcumin,IC50,[1],20.5 ± 1.7 µM
same,IC50,[2],12.9 ± 0.7 µM
same,IC50,[3],18.4 ± 0.9 µM
